Measured values from US10442796B2, “2,3,5-substituted thiophene compound as protein kinase inhibitor” (KOREA INSTITUTE OF SCIENCE AND TECHNOLOGY, priority 2016, dated 2019).
Changes are numbered by the printed parent chain. Counter-ions that a name gives are not always drawn.

Key:
[1] = biological target: T1, FLT3-ITD-F691L-D835Y Ba/F3 cells (Homo sapiens, UniProt P36888, F691L/D835Y, cells depend on it, form not given); assay: Growth inhibitory activity against Ba/F3 cell line; assay type: cell-based; settings: Ba/F3 expressing FLT3-ITD-F691L-D835Y; 72 hours; cell titer glo; read-out: IC50 (uM) FLT3-ITD-F691L-D835Y
T1 sequence (P36888 1-993 F691L/D835Y): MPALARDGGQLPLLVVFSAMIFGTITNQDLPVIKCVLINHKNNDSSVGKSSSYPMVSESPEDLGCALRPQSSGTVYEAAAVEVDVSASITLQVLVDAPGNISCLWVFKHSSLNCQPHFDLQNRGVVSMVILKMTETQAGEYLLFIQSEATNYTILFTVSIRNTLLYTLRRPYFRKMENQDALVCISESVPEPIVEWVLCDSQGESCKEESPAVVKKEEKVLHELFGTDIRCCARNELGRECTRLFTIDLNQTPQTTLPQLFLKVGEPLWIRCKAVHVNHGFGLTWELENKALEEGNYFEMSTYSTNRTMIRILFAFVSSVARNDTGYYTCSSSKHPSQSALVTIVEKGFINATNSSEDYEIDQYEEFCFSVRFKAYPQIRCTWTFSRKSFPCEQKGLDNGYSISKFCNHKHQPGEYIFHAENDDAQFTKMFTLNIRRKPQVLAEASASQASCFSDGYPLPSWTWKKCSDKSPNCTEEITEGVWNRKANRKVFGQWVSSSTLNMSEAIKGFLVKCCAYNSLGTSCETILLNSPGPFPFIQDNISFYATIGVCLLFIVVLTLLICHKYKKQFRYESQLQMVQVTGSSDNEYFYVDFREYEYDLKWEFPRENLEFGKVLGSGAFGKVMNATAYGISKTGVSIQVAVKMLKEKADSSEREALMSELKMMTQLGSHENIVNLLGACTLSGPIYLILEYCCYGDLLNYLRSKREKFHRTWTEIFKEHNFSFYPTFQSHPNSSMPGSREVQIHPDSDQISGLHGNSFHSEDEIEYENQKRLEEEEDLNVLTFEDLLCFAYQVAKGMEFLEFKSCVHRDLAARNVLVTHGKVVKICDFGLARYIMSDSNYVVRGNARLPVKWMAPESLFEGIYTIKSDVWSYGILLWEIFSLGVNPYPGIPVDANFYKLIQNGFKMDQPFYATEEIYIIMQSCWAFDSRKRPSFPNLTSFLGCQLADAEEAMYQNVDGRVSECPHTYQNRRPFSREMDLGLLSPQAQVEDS
Outline: (§1)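 Ba/F3 cells carrying FLT3 mutants grown in RPMI with 10% FBS, exposed 72 h to ten 3-fold dilutions of compound starting from 1 mM DMSO stock. Viability read by CellTiter-Glo luminescence; GI50 fitted from signal versus final concentration.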

[2] = biological target: T2, FLT3-ITD-F691L Ba/F3 cells (Homo sapiens, UniProt P36888, F691L, cells depend on it, form not given); assay: Growth inhibitory activity against Ba/F3 cell line; assay type: cell-based; settings: Ba/F3 expressing FLT3-ITD-F691L; 72 hours; cell titer glo; read-out: IC50 (uM) FLT3-ITD-F691L
T2 sequence (P36888 1-993 F691L): T1 sequence (P36888 1-993 F691L/D835Y) with Y835D
Outline: as §1

[3] = Body weight change during bioluminescent in vivo efficacy study; parameters: species or system mouse; settings: po, qd
Experimental: Each compound was dissolved in NMP at 20× final concentration and diluted to 1× with the remaining vehicle components (vehicle: 5% NMP, 15% solutol (Sigma-aldrich), 30% PEG400 (Sigma-aldrich), 50% 0.05M citric acid (Sigma-aldrich)). Each compound solution was prepared freshly just before administration. Compounds were administered orally using a mouse sondae once a day, 0.1 mL per mouse. Mice were humanely euthanized if animals experience 20% body weight loss.
D-Luciferin (Promega) was dissolved in DPBS (Welgene) (without Ca2+ and Mg2+) at 15 mg/mL, and the stock solution was prepared after filtration using 0.22 μm syringe filters (BD). Luciferin solution (150 mg/kg in DPBS) was injected intraperitoneally into each mouse (200 μL/mouse). After 5 min, mice were anesthetized for 5 min using isoflurane (JW Pharma). Luminescence signal was read using IVIS200 (exposure time: auto, binning: 8, F/stop: 1). Signal intensity and body weights were measured every 3 days to monitor the ROI intensity and treatment-induced body weight loss. […] Data was analyzed using Living Image software (Caliper, PerkinElmer).
Statistical analysis of luminescence signal intensity, mouse body weight, and spleen/body weight ratio were evaluated using two-way ANOVA. Differences were considered statistically significant at p<0.005.

| Compound | GI50 [1] [µM] | GI50 [2] [µM] | mouse body weight [3] |
| --- | --- | --- | --- |
| NC(=O)Nc1cc(C#Cc2ccc(F)c(F)c2)sc1C(=O)N[C@H]1CCCNC1 [Example 14, (S)-5-((3,4-difluorophenyl)ethynyl)-N-(piperidin-3-yl)-3-ureidothiophene-2-carboxamide] | < 0.001 | 0.009 | – |
| NC(=O)Nc1cc(C#Cc2n[nH]c3ccccc23)sc1C(=O)N[C@H]1CCCNC1 [Example 12, (S)-5-((1H-indazol-3-yl)ethynyl)-N-(piperidin-3-yl)-3-ureidothiophene-2-carboxamide] | 0.027 | 0.487 | – |
| NC(=O)Nc1cc(C#Cc2cnn(C3CCOCC3)c2)sc1C(=O)N[C@H]1CCCCNC1 [Example 46, (S)—N-(azepan-3-yl)-5-((1-(tetrahydro-2H-pyran-4-yl)-1H-pyrazol-4-yl)ethynyl)-3-ureidothiophene-2-carboxamide trifluoroacetate] | 0.003 | 0.075 | – |
| Cn1cc(C#Cc2cc(NC(N)=O)c(C(=O)NC3CCNC3)s2)cn1 (centres unmarked) [Example 39, 5-((1-methyl-1H-pyrazol-4-yl)ethynyl)-N-(pyrrolidin-3-yl)-3-ureidothiophene-2-carboxamide trifluoroacetate] | 1.24 | 19.1 | – |
| NC(=O)Nc1cc(C#Cc2cccc([N+](=O)[O-])c2)sc1C(=O)N[C@H]1CCCNC1 [Example 5, (S)-5-((3-nitrophenyl)ethynyl)-N-(piperidin-3-yl)-3-ureidothiophene-2-carboxamide] | < 0.004 | 0.062 | – |
| NC(=O)Nc1cc(C#Cc2ccccn2)sc1C(=O)N[C@H]1CCCNC1 [Example 10, (S)—N-(piperidin-3-yl)-5-(pyridin-2-ylethynyl)-3-ureidothiophene-2-carboxamide] | 0.004 | 0.066 | – |
| NC(=O)Nc1cc(CCc2cccc(F)c2)sc1C(=O)N[C@H]1CCCCNC1 [Example 54, (S)—N-(azepan-3-yl)-5-(3-fluorophenethyl)-3-ureidothiophene-2-carboxamide] | 1.02 | 7.47 | – |
| NC(=O)Nc1cc(C#Cc2ccsc2)sc1C(=O)N[C@H]1CCCCNC1 [Example 48, (S)—N-(azepan-3-yl)-5-(thiophen-3-ylethynyl)-3-ureidothiophene-2-carboxamide trifluoroacetate] | 0.004 | 0.083 | – |
| Cc1ccc(C#Cc2cc(NC(N)=O)c(C(=O)N[C@H]3CCCNC3)s2)cc1 [Example 24, (S)—N-(piperidin-3-yl)-5-(p-tolylethynyl)-3-ureidothiophene-2-carboxamide] | 0.002 | 0.058 | – |
| COCCn1cc(C#Cc2cc(NC(N)=O)c(C(=O)N[C@H]3CCCCNC3)s2)cn1 [Example 45, (S)—N-(azepan-3-yl)-5-((1-(2-methoxyethyl)-1H-pyrazol-4-yl)ethynyl)-3-ureidothiophene-2-carboxamide trifluoroacetate] | 0.019 | 1.34 | – |
| N#Cc1cccc(C#Cc2cc(NC(N)=O)c(C(=O)N[C@H]3CCCNC3)s2)c1 [Example 6, (S)-5-((3-cyanophenyl)ethynyl)-N-(piperidin-3-yl)-3-ureidothiophene-2-carboxamide] | < 0.004 | 0.055 | – |
| NC(=O)Nc1cc(C#Cc2ccc(C(F)(F)F)cc2)sc1C(=O)N[C@H]1CCCNC1 [Example 16, ((S)—N-(piperidin-3-yl)-5-((4-(trifluoromethyl)phenyl)ethynyl)-3-ureidothiophene-2-carboxamide trifluoroacetate] | 0.004 | 0.335 | – |
| Cn1cc(C#Cc2cc(NC(N)=O)c(C(=O)N[C@H]3CCCNC3)s2)cn1 [Example 15, (S)-5-((l-methyl-1H-pyrazol-4-yl)ethynyl)-N-(piperidin-3-yl)-3-ureidothiophene-2-carboxamide trifluoroacetate] | 0.009 | 0.216 | – |
| NC(=O)Nc1cc(C#Cc2cccc(F)c2)sc1C(=O)N[C@H]1CCCNC1 [Example 22, (S)-5-((3-fluorophenyl)ethynyl)-N-(piperidin-3-yl)-3-ureidothiophene-2-carboxamide] | < 0.001 | 0.032 | did not alter the mouse body weight |
